Assay results published in the NIST ThermoML archive (doi:10.1016/j.jct.2018.02.018).
± gives the expanded uncertainty stated by the source.

Assay: xn = mol fraction of the nth substance listed
Details: 100 kPa, Liquid; for speed of sound: Frequency=3 MHz, Single path-length method; for mass density: Vibrating tube method

CN(C)CCCO [3-dimethylamino-1-propanol] + C[S+](C)[O-]
Details | mass density, 293.15 K [kg/m3] | mass density, 303.15 K [kg/m3] | mass density, 313.15 K [kg/m3] | speed of sound, 293.15 K [m/s] | speed of sound, 303.15 K [m/s] | speed of sound, 313.15 K [m/s]
x2 = 0 | 885 ± 4 | 877 ± 4 | 869 ± 4 | 1395.8 ± 1.7 | 1358.8 ± 1.7 | 1322.1 ± 1.7
x2 = 0.0517 | 891 ± 4 | 883 ± 4 | 875 ± 4 | 1397.6 ± 1.7 | 1360.9 ± 1.7 | 1324.4 ± 1.7
x2 = 0.0986 | 898 ± 4 | 889 ± 4 | 881 ± 4 | 1398.4 ± 1.7 | 1361.8 ± 1.7 | 1325.4 ± 1.7
x2 = 0.1998 | 911 ± 4 | 903 ± 4 | 895 ± 4 | 1401.4 ± 1.6 | 1365.3 ± 1.6 | 1328.9 ± 1.6
x2 = 0.3 | 927 ± 4 | 918 ± 4 | 910 ± 4 | 1405.2 ± 1.6 | 1369.9 ± 1.6 | 1334.4 ± 1.6
x2 = 0.3998 | 944 ± 4 | 935 ± 4 | 926 ± 4 | 1411.3 ± 1.6 | 1375.7 ± 1.6 | 1340.7 ± 1.6
x2 = 0.5031 | 963 ± 4 | 954 ± 4 | 946 ± 4 | 1418.8 ± 1.6 | 1383.9 ± 1.6 | 1349.3 ± 1.6
x2 = 0.5988 | 983 ± 4 | 974 ± 4 | 965 ± 4 | 1428.3 ± 1.5 | 1393.6 ± 1.5 | 1359.3 ± 1.5
x2 = 0.6998 | 1007 ± 4 | 998 ± 4 | 989 ± 4 | 1441.3 ± 1.5 | 1406.9 ± 1.5 | 1372.9 ± 1.5
x2 = 0.7918 | 1032 ± 4 | 1023 ± 4 | 1013 ± 4 | 1456 ± 1.5 | 1421.8 ± 1.5 | 1388.1 ± 1.5
x2 = 0.899 | 1065 ± 4 | 1055 ± 4 | 1046 ± 4 | 1478 ± 1.5 | 1444.5 ± 1.5 | 1410.9 ± 1.5
x2 = 0.9494 | 1082 ± 4 | 1072 ± 4 | 1062 ± 4 | 1489.6 ± 1.5 | 1455.9 ± 1.5 | 1422.3 ± 1.5
